Data on 17 molecules can be found in patent US20240166687A1, “REGULATORY T CELL-INDUCING PEPTIDE AND COMPOSITION INCLUDING SAME FOR PREVENTING OR TREATING AUTOIMMUNE DISEASE” (IUCF-HYU (INDUSTRY-UNIVERSITY COOPERATION FOUNDATION …, priority 2021, published 2024).

Entries after “also recorded” stand apart in the source; their conditions may differ.

The subject of assay [1] is Th17 cells differentiated from splenocytes isolated from mouse. Kind of assay: Analysis of effect under Th17 differentiation conditions (flow cytometry of IL-17A and Foxp3). In kind it is cell-based. Conditions: sample 2 μM; for effect of suppressing immune response compared to the dNP2-ctCTLA-4 group / order of the reduction of IL-17 and the increase of Foxp3 among AP-K2 variants: 4 days; for effect of suppressing immune response compared to the dNP2-ctCTLA-4 group: versus dNP2-ctCTLA-4 positive control; for effect of suppressing immune response (decrease of IL-17 and increase of Foxp3): flow cytometry 4 days later, comparator as named in the value (Th17/PBS control, K1, AP-K2). An excerpt:
Th17 cells are a subset of CD4 T cells. The Th17 cells are known to secrete a cytokine known as IL-17 and cause inflammation. This is the major cause of autoimmune disease. And, Treg cells (regulatory T cells) are known to suppress and regulate inflammation by expressing the transcription factor called Foxp3. Accordingly, since it is thought that the effect of preventing and treating autoimmune disease may be achieved by regulating inflammation by inhibiting Th17 cells (IL-17) and increasing Treg (Foxp3) cells, the effect of the peptides of the present disclosure was investigated.
Undifferentiated CD4 T cells (naive CD4 T cells) were isolated from splenocytes of 6- to 8-week-old C57BL/6 mice using a mouse undifferentiated CD4+ T cell (naive CD4 T cell) isolation kit (Miltenyi Biotec, Auburn, CA, USA) according to the manufacturer's protocols. For RNAseq, the undifferentiated CD4 T cells (naive CD4 T cells) from the Foxp3-GFP mice were purified, differentiated into Th17 cells and sorted into Foxp3^+ and Foxp3^− populations using a cell sorter (FACS Aria cell sorter BD Biosciences, Franklin Lakes, NJ, USA). The purified undifferentiated CD4 T cells (naive CD4 T cells) were activated with plate-bound anti-CD3 (2 or 5 μg/mL, 553057; BD Pharmingen, La Jolla, CA) and anti-CD28 (2 or 5 μg/mL, 553294; BD Pharmingen, La Jolla, CA) antibodies and differentiated by treating with the following cytokine cocktails in a 96-well plate for 3 or 4 days: Th0; recombinant human TGF-β(R&D Systems) 0.25 ng/mL. Th1; anti-IL-4 (11B11; 16-7041-85; eBioscience) 5 μg/mL, IL-2 (212-12; Peprotech, Rocky Hill, NJ) 50 U/mL, recombinant murine IL-12 (212-12; Peprotech) 2 ng/mL, recombinant human TGF-β (R&D Systems) for Th1 0.25 ng/mL. Th17; anti-IFN-γ (XMG1.2; 16-7311-85; eBioscience) 5 μg/mL, anti-IL-4 (11B11; 16-7041-85; eBioscience) 5 μg/mL, recombinant murine TGF-β (7666-MB, R&D Systems, Minneapolis, MN) 2 ng/mL, IL-6 (216-16; Peprotech) 30 ng/mL, IL-23 (1887-ML-101; R&D Systems) 20 ng/mL, IL-1β (401-ML-010; R&D Systems) 20 ng/mL, and IL-2 (Peprotech) 50 U/mL. Treg; IL-2 (Peprotech) 50 U/mL and TGF-β (R&D Systems) 0.5 ng/mL.
The cells were cotreated with the cytokine cocktails and the samples (2 μM). 4 days later, they were analyzed by flow cytometry using IL-17 and Foxp3 fluorescent antibodies. In some experiments, 5 μM PKC-η pseudosubstrate inhibitor (sc-3096; Santa Cruz) or 5 μM ERK inhibitor (UO126, 662005; Sigma) were also added.
For flow cytometric analysis of living cells only, dead cells were excluded using the Zombie Aqua™ fixable viability kit (Biolegend) before staining with antibodies at room temperature for 10 minutes. After washing, surface proteins of the differentiated Th1, Th17 and Treg cells were stained with monoclonal antibodies at 4° C. for 15 minutes. To determine intracellular cytokine levels, the cells were restimulated with a cell stimulation cocktail (plus protein transport inhibitors) (ThermoFisher) at 37° C. for 4 hours and then stained with surface marker antibodies. The cells were then fixed, permeabilized using a Foxp3/transcription factor staining buffer set (eBioscience) and stained with anti-mouse IFN-γ, anti-mouse IL-17 and anti-mouse Foxp3. The cells were analyzed using a FACS Canto II flow cytometer and the FlowJo software version 10.7.
On the technique in general: In flow cytometry, cells or beads pass a laser one at a time.

In assay [2] the test system is multiple sclerosis animal model. Description: Analysis of efficiency in multiple sclerosis (MS) animal model (MOG35-55/CFA + PTX). It counts as in vivo, C57BL/6 mice. Conditions: comparator as named in the value; for clinical symptoms (clinical score): 100 μg (5 mg/kg) intraperitoneally once a day from day 7 after PTX. Here is the method: 8-week-old female C57BL/6 mice were purchased from Orient Bio (Daejeon, Korea). All animal experiments were conducted in compliance with the animal experiment operation regulations of the Institutional Animal Care and Use Committee of Hanyang University. The mice were acclimatized for 2 weeks before the experiment. The mice were raised in a breeding room maintained at temperature 22±2° C. and 40-60% humidity with free access to feed. The light and dark cycles were adjusted at 12-hour intervals. Multiple sclerosis was induced by subcutaneous immunization using a MOG35-55/CFA emulsion PTX kit (Hooke Labs, Lawrence, MA, USA) according to the manufacturer's protocol. The mice were anesthetized with isoflurane and MOG35-55/CFA was subcutaneously injected bilaterally, followed by intraperitoneal injection of PTX (pertussis toxin) 2 hours and 24 hours later. The mice were randomly assigned to different groups after MOG immunization. Because paralysis due to immune response begins on day 7 after the injection of PTX, 100 μg (5 mg/kg) of the samples according to the present disclosure were intraperitoneally injected to the groups once a day from day 7. Each group was monitored every day after inducing multiple sclerosis and clinical symptoms were recorded. The clinical symptoms were evaluated based on the scoring system described in Table 2. The higher clinical scores indicate severer symptoms. The mice were euthanized at the end of the experiments and lymphocytes were isolated from the spinal cords. The isolated spinal cords were treated at 37° C. with 1 mg/mL of DNase 1 (10104159001; Sigma-Aldrich) and 1 mg/mL of collagenase D (11088866001; Sigma-Aldrich) and incubated at 80 rpm on a shaker for 40 minutes. After the enzyme treatment, 500 mM EDTA was added and lymphocytes were isolated by Percoll (GE Healthcare, Little Chalfont, UK) density-gradient centrifugation. The isolated infiltrated lymphocytes were restimulated with a cell stimulation cocktail (plus protein transport inhibitors) (ThermoFisher) at 37° C. for 4 hours and stained with anti-mouse CD4. The cells were fixed, permeabilized using a Foxp3/transcription factor staining buffer set (eBioscience) and stained with anti-mouse IFN-γ, anti-mouse IL-17 or anti-mouse Foxp3. The cells were analyzed using a FACS Canto flow cytometer and the FlowJo software version 10.7.1. For histological analysis, paraffin blocks of the spinal cord tissues were deparaffinized and treated with luxol fast blue. For combination staining, hematoxylin and eosin were used (Dako). The cells infiltrated in the white matter region of the spinal cord tissues were counted using the Image J software version 2.0.0. The increased number of Th1 and Th17 immune cells in the spinal cord means more severe multiple sclerosis, and the increased number of Treg cells means that the function of preventing or treating autoimmune disease such as multiple sclerosis is improved as the tolerance to self-antigens is maintained and the excessive response by the immune system is prevented.

Setting [3] is: 100 μg intraperitoneally once a day from day 7.

As to “KMLKKRSKMLKKRS (K2) [Example K2, two K motifs of CTLA4 linked, no linker]”, in assay [1], the “effect of suppressing immune response compared to the dNP2-ctCTLA-4 group” value is listed as “comparable effect”; the “effect of suppressing immune response (decrease of IL-17 and increase of Foxp3)” value is recorded as “significantly better effect of suppressing immune response than the PBS (control group); also recorded: significantly superior effect of suppressing immune response as compared to the PBS group”. Besides, the “clinical symptoms (clinical score)” value in assay [2] is listed as “significantly improved result for clinical symptoms as compared to the PBS group”. Besides, in assay [2] (setting [3]), the “number of infiltrated lymphocytes in the spinal cord” value (“number of infiltrated lymphocytes” for short) was “significantly smaller number of infiltrated lymphocytes in the spinal cord than the PBS (control group)”.

On to “RRRWCKRRRGGAMLAAASAMLAAAS (AP-K2 KA) [negative control, lysine and arginine residues of AP-K2 replaced with alanine]”, for which the “effect of suppressing immune response (decrease of IL-17 and increase of Foxp3)” value in assay [1] is recorded as “decreased slightly”.

YVKM (Y1) [Example Y1, motif of CTLA4]: in assay [1], the “effect of suppressing immune response (decrease of IL-17 and increase of Foxp3)” value was “did not show significant difference from the dNP2 group or the Th17 group”.

On to “KIKKVKKKGRKGSKIKKVKKKGRKGGKMLKKRSPLTTGVYVKM (dNP2-KSY) [deleted variant of dNP2-ctCTLA-4]”, for which, in assay [2], the “clinical symptoms (clinical score)” value was “significantly superior in terms of clinical symptoms as compared to the TAT-ctCTLA-4 group and the PBS group”. Besides, the “number of infiltrated lymphocytes” value in assay [2] (setting [3]) was “significantly smaller number of infiltrated lymphocytes in the spinal cord as compared to the TAT-ctCTLA-4 group and the PBS group”.

Turning to KMLKKRSKMLKKRSKMLKKRS (K3) [Example K3], in assay [1], the “effect of suppressing immune response compared to the dNP2-ctCTLA-4 group” value was “comparable effect”; the “effect of suppressing immune response (decrease of IL-17 and increase of Foxp3)” value was “significantly better effect of suppressing immune response than the PBS (control group); also recorded: significantly superior effect of suppressing immune response as compared to the PBS group”. Further, in assay [1] (listed as Example 4), the “effect of suppressing immune response (decrease of IL-17 and increase of Foxp3)” value was “the activity of inhibiting immune cells is significantly superior”. The “clinical symptoms (clinical score)” value in assay [2] was “significantly remarkable superior result in clinical symptoms than the K1 group”. Besides, in assay [2] (setting [3]), the “number of Treg cells (spinal cord)” value was “larger number of Treg cells than the K1 group” and the “number of infiltrated lymphocytes” value is “significantly number of infiltrated lymphocytes in the spinal cord as compared to the K1 group”.

Turning to RRRWCKRRRGGKMLAKRSKMLAKRS (AP-K2 2KA), the “order of the reduction of IL-17 and the increase of Foxp3 among AP-K2 variants” value in assay [1] is “in the order of the AP-K2 SA group, the AP-K2 2KA group, the AP-K2 3KA group and the AP-K2 MA group”.

In the case of RRRWCKRRRGGKMLKKRAKMLKKRA (AP-K2 SA), the “order of the reduction of IL-17 and the increase of Foxp3 among AP-K2 variants” value in assay [1] is “in the order of the AP-K2 SA group, the AP-K2 2KA group, the AP-K2 3KA group and the AP-K2 MA group”.

As to RRRWCKRRRGGKALKKRSKALKKRS (AP-K2 MA), in assay [1], the “order of the reduction of IL-17 and the increase of Foxp3 among AP-K2 variants” value was “in the order of the AP-K2 SA group, the AP-K2 2KA group, the AP-K2 3KA group and the AP-K2 MA group”.

Turning to RRRWCKRRRGGKMLKKASKMLKKAS (AP-K2 RA), the “effect of suppressing immune response (decrease of IL-17 and increase of Foxp3)” value in assay [1] is listed as “decreased significantly”.

Regarding “YFIPIN (Y2) [Example Y2, motif of CTLA4]”, the “effect of suppressing immune response (decrease of IL-17 and increase of Foxp3)” value in assay [1] is “did not show significant difference from the dNP2 group or the Th17 group”.

Regarding SPLTTGV (S) [motif of CTLA4], the “effect of suppressing immune response (decrease of IL-17 and increase of Foxp3)” value in assay [1] was “did not show significant difference from the dNP2 group or the Th17 group”.

For “KIKKVKKKGRKGSKIKKVKKKGRKKMLKKRS (dNP2-K1) [deleted variant of dNP2-ctCTLA-4 with only the K motif]”, the “effect of suppressing immune response (decrease of IL-17 and increase of Foxp3)” value in assay [1] is listed as “exhibited the activity of inhibiting immune response”. For the same molecule, the “number of infiltrated lymphocytes” value in assay [2] (setting [3]) was “significantly smaller number of infiltrated lymphocytes in the spinal cord as compared to the TAT-ctCTLA-4 group and the PBS group”.

With RRRWCKRRRGGKMAKKRSKMAKKRS (AP-K2 LA), the “effect of suppressing immune response (decrease of IL-17 and increase of Foxp3)” value in assay [1] is recorded as “slightly decreased function of AP-L2”.

With PPTEPECE (P) [motif of CTLA4], in assay [1], the “effect of suppressing immune response (decrease of IL-17 and increase of Foxp3)” value is given as “did not show significant difference from the dNP2 group or the Th17 group”.

Regarding RRRWCKRRRGGAMLKKRSAMLKKRS (AP-K2 1KA), the “effect of suppressing immune response (decrease of IL-17 and increase of Foxp3)” value in assay [1] is “decreased significantly”.

As to RRRWCKRRRGGKMLKARSKMLKARS (AP-K2 3KA), the “order of the reduction of IL-17 and the increase of Foxp3 among AP-K2 variants” value in assay [1] is “in the order of the AP-K2 SA group, the AP-K2 2KA group, the AP-K2 3KA group and the AP-K2 MA group”.

B1: KIKKVKKKGRKGSKIKKVKKKGRKGGKMLKKRSPLTTGVYVKMAATEAECEKQFQPYFIPIN (peptide)
chain: KIKKVKKKGRKGSKIKKVKKKGRKGGKMLKKRSPLTTGVYVKMAATEAECEKQFQPYFIPIN
notes: dNP2-ctCTLA-4 variant
Take B1: the “clinical symptoms (clinical score)” value in assay [2] was “significantly lower clinical symptoms as compared to the PBS group”. In addition, the “number of infiltrated lymphocytes” value in assay [2] (setting [3]) was “significantly larger number of infiltrated lymphocytes in the spinal cord as compared to the PBS group”.
